PMC12444507 (ACS Omega, 2025)

Experiments:
[1] = test system: SARS-CoV-2 strain JPN/TY/WK-521 (SARS-CoV-2^WK-521, ancestral Wuhan strain); format: cell-based
[2] = test system: SARS-CoV-2^WK-521 infected VeroE6 cells
[3] = test system: SARS-CoV-2 strain JPN/TY/WK-521 (SARS-CoV-2^WK-521, ancestral Wuhan strain); conditions: cited from earlier work

With `CC(C)(C)[C@H](NC(=O)C(F)(F)F)C(=O)N1C[C@H]2[C@@H]([C@H]1C(=O)N[C@@H](C[C@@H]1CCNC1=O)C(=O)c1nc3c(Br)c(F)ccc3s1)C2(C)C` [Compound 15] the “lower potency than TKB272 (8)” value [1] was “approximately 3 fold”.

With `CC(C)(C)[C@H](NC(=O)C(F)(F)F)C(=O)N1C[C@H]2[C@@H]([C@H]1C(=O)N[C@@H](C[C@@H]1CCNC1=O)C(=O)c1nc3cc(F)ccc3s1)C2(C)C` [TKB272 (8)] the revertant mutagenicity (bacterial mutation) was “no revertant mutagenicity” and the “cytotoxicity in immunostaining experiments” value [2] was “no significant cytotoxicity”.

For `CC(C)(C)[C@H](NC(=O)C(F)(F)F)C(=O)N1C[C@H]2[C@@H]([C@H]1C(=O)N[C@H](C#N)C[C@@H]1CCNC1=O)C2(C)C` [nirmatrelvir (1), nirmatrelvir], the EC50 [3] is listed as 0.77 ± 0.18 µM.
